Reference: the supplement of paper PMC10307832

Columns and labels:
Test in all cases: relative viability (nuclei count vs DMSO), 5 days (fraction); higher = more cells survive
A-427 = tested on: A-427
In short: (§1)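 Dosing by pin tool came one day after lung cancer cell lines were seeded in 1536-well plates, using either one drug or a fixed anchor-drug dose plus five library-drug doses (not always all listed) in √10 steps. After 5 days, nuclei were counted on 4× images. Relative viability is treated-well nuclei count divided by vehicle-well nuclei count, and values are medians of duplicate plates.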

COR-L23 = tested on: COR-L23
In short: as §1

ChaGo-K-1 = tested on: ChaGo-K-1
In short: as §1

EMC-BAC-2 = tested on: EMC-BAC-2
In short: as §1

HARA = tested on: HARA
In short: as §1

HCC-15 = tested on: HCC-15
In short: as §1

HCC-366 = tested on: HCC-366
In short: as §1

HCC-78 = tested on: HCC-78
In short: as §1

LC-2-ad = tested on: LC-2-ad
In short: as §1

LK-2 = tested on: LK-2
In short: as §1

NCI-H1650 = tested on: NCI-H1650
In short: as §1

NCI-H1734 = tested on: NCI-H1734
In short: as §1

NCI-H1793 = tested on: NCI-H1793
In short: as §1

NCI-H1944 = tested on: NCI-H1944
In short: as §1

NCI-H1993 = tested on: NCI-H1993
In short: as §1

NCI-H2009 = tested on: NCI-H2009
In short: as §1

NCI-H2023 = tested on: NCI-H2023
In short: as §1

NCI-H2228 = tested on: NCI-H2228
In short: as §1

NCI-H23 = tested on: NCI-H23
In short: as §1

NCI-H2405 = tested on: NCI-H2405
In short: as §1

NCI-H838 = tested on: NCI-H838
In short: as §1

SK-LU-1 = tested on: SK-LU-1
In short: as §1

UMC-11 = tested on: UMC-11
In short: as §1

Structure (SMILES): C[C@@H]1CN(CC(=O)Nc2ccc3c(c2)Cc2cccc(-c4cc(=O)cc(N5CCOCC5)o4)c2S3)C[C@H](C)O1 + CC(=O)Nc1cccc(-n2c(=O)n(C3CC3)c(=O)c3c(Nc4ccc(I)cc4F)n(C)c(=O)c(C)c32)c1 [Trametinib] (partner 0.02 µM)
- relative viability (A-427; first compound 0.04 µM): 0.682
- relative viability (A-427; first compound 0.1265 µM): 0.755
- relative viability (A-427; first compound 0.4 µM): 0.678
- relative viability (A-427; first compound 4 µM): 0.583
- relative viability (COR-L23; first compound 0.04 µM): 0.596
- relative viability (COR-L23; first compound 0.1265 µM): 0.611
- relative viability (COR-L23; first compound 0.4 µM): 0.624
- relative viability (COR-L23; first compound 4 µM): 0.447
- relative viability (ChaGo-K-1; first compound 0.04 µM): 0.868
- relative viability (ChaGo-K-1; first compound 0.1265 µM): 0.859
- relative viability (ChaGo-K-1; first compound 0.4 µM): 0.879
- relative viability (ChaGo-K-1; first compound 4 µM): 0.871
- relative viability (EMC-BAC-2; first compound 0.04 µM): 0.891
- relative viability (EMC-BAC-2; first compound 0.1265 µM): 0.892
- relative viability (EMC-BAC-2; first compound 0.4 µM): 0.782
- relative viability (EMC-BAC-2; first compound 4 µM): 0.688
- relative viability (HARA; first compound 0.04 µM): 0.785
- relative viability (HARA; first compound 0.1265 µM): 0.654
- relative viability (HARA; first compound 0.4 µM): 0.602
- relative viability (HARA; first compound 4 µM): 0.406
- relative viability (HCC-15; first compound 0.04 µM): 0.374
- relative viability (HCC-15; first compound 0.1265 µM): 0.331
- relative viability (HCC-15; first compound 0.4 µM): 0.308
- relative viability (HCC-15; first compound 4 µM): 0.348
- relative viability (HCC-366; first compound 0.04 µM): 0.43
- relative viability (HCC-366; first compound 0.1265 µM): 0.3
- relative viability (HCC-366; first compound 0.4 µM): 0.244
- relative viability (HCC-366; first compound 4 µM): 0.181
- relative viability (HCC-78; first compound 0.04 µM): 0.713
- relative viability (HCC-78; first compound 0.1265 µM): 0.751
- relative viability (HCC-78; first compound 0.4 µM): 0.859
- relative viability (HCC-78; first compound 4 µM): 0.711
- relative viability (LC-2-ad; first compound 0.04 µM): 0.897
- relative viability (LC-2-ad; first compound 0.1265 µM): 0.867
- relative viability (LC-2-ad; first compound 0.4 µM): 0.892
- relative viability (LC-2-ad; first compound 4 µM): 0.854
- relative viability (LK-2; first compound 0.04 µM): 0.874
- relative viability (LK-2; first compound 0.1265 µM): 0.756
- relative viability (LK-2; first compound 0.4 µM): 0.709
- relative viability (LK-2; first compound 4 µM): 0.912
- relative viability (NCI-H1650; first compound 0.04 µM): 0.535
- relative viability (NCI-H1650; first compound 0.1265 µM): 0.548
- relative viability (NCI-H1650; first compound 0.4 µM): 0.596
- relative viability (NCI-H1650; first compound 4 µM): 0.286
- relative viability (NCI-H1734; first compound 0.04 µM): 0.698
- relative viability (NCI-H1734; first compound 0.1265 µM): 0.756
- relative viability (NCI-H1734; first compound 0.4 µM): 0.632
- relative viability (NCI-H1734; first compound 4 µM): 0.788
- relative viability (NCI-H1793; first compound 0.04 µM): 0.349
- relative viability (NCI-H1793; first compound 0.1265 µM): 0.415
- relative viability (NCI-H1793; first compound 0.4 µM): 0.381
- relative viability (NCI-H1793; first compound 4 µM): 0.34
- relative viability (NCI-H1944; first compound 0.1265 µM): 0.412
- relative viability (NCI-H1944; first compound 0.4 µM): 0.4
- relative viability (NCI-H1944; first compound 4 µM): 0.425
- relative viability (NCI-H1993; first compound 0.04 µM): 0.521
- relative viability (NCI-H1993; first compound 0.1265 µM): 0.565
- relative viability (NCI-H1993; first compound 0.4 µM): 0.521
- relative viability (NCI-H1993; first compound 4 µM): 0.478
- relative viability (NCI-H2009; first compound 0.04 µM): 0.259
- relative viability (NCI-H2009; first compound 0.1265 µM): 0.261
- relative viability (NCI-H2009; first compound 0.4 µM): 0.22
- relative viability (NCI-H2009; first compound 4 µM): 0.197
- relative viability (NCI-H2023; first compound 0.04 µM): 0.674
- relative viability (NCI-H2023; first compound 0.1265 µM): 0.507
- relative viability (NCI-H2023; first compound 0.4 µM): 0.509
- relative viability (NCI-H2023; first compound 4 µM): 0.311
- relative viability (NCI-H2228; first compound 0.04 µM): 0.575
- relative viability (NCI-H2228; first compound 0.1265 µM): 0.547
- relative viability (NCI-H2228; first compound 0.4 µM): 0.536
- relative viability (NCI-H2228; first compound 4 µM): 0.421
- relative viability (NCI-H23; first compound 0.04 µM): 0.356
- relative viability (NCI-H23; first compound 0.1265 µM): 0.348
- relative viability (NCI-H23; first compound 0.4 µM): 0.336
- relative viability (NCI-H23; first compound 4 µM): 0.286
- relative viability (NCI-H2405; first compound 0.04 µM): 0.7
- relative viability (NCI-H2405; first compound 0.1265 µM): 0.651
- relative viability (NCI-H2405; first compound 0.4 µM): 0.59
- relative viability (NCI-H2405; first compound 4 µM): 0.66
- relative viability (NCI-H838; first compound 0.04 µM): 0.688
- relative viability (NCI-H838; first compound 0.1265 µM): 0.488
- relative viability (NCI-H838; first compound 0.4 µM): 0.521
- relative viability (NCI-H838; first compound 4 µM): 0.39
- relative viability (SK-LU-1; first compound 0.04 µM): 0.518
- relative viability (SK-LU-1; first compound 0.1265 µM): 0.454
- relative viability (SK-LU-1; first compound 0.4 µM): 0.477
- relative viability (SK-LU-1; first compound 4 µM): 0.447
- relative viability (UMC-11; first compound 0.04 µM): 0.732
- relative viability (UMC-11; first compound 0.1265 µM): 0.757
- relative viability (UMC-11; first compound 0.4 µM): 0.868
- relative viability (UMC-11; first compound 4 µM): 0.65
